Tests used:
[1] = system: natural killer (NK) cells; test: Flow cytometry of NK cells (S1L-M); type: in vivo, mouse; parameters: key to Frequencies of NK in Spleen / Frequencies of NK in LN: % of cells; conditions: for Frequencies of NK in LN: Supplemental Figure 1M left; for number of NK in LN: Supplemental Figure 1M right; for NK (NK1.1) gate number: representative flow plot; for Frequencies of NK in Spleen: Supplemental Figure 1L left; for number of NK in Spleen: Supplemental Figure 1L right
Protocol: C57BL/6 mice were subcutaneously injected with 5 × 10^5 B16-OVA melanoma cells. Five days after tumor implantation, mice received an intravenous infusion of 2 × 10^6 in vitro–differentiated Th9 cells (cultured for 5 days), which were derived from OT-II CD45.1 donor mice, accompanied by 4 × 10^5 OVA peptide–pulsed DCs via the tail vein. To enhance T cell engraftment and facilitate lymphodepletion, a single intraperitoneal injection of cyclophosphamide (200 mg/kg, Sigma, catalog C0768) was administered 1 day prior to T cell transfer. Mice were euthanized at designated time points for the collection and analysis of spleens, tumor-draining lymph nodes, and tumor tissues.
Details regarding staining panels (human and mouse), reagents (including clones and catalog numbers), acquisition settings, compensation/controls, and analysis procedures are provided in Supplemental Methods. […]
Figure S1. EpA enhances immune responses. […]
(L and M) Representative plots, frequencies, and total numbers of natural killer (NK) cells in spleens (L) and LNs (M). Data in (A–M) are shown as mean ± SEM from n = 4 mice per group. Statistical analysis was performed using two-way ANOVA with Tukey’s post hoc test (A), one-way ANOVA with Tukey’s post hoc test (B) or two-tailed unpaired Student’s t-test (D and G–M). ns, not significant. *p < 0.05, **p < 0.01, ****p < 0.0001.
(also on this page, place not known: Mouse weight (g) CtrlEpA CtrlEpA CtrlEpA0 I CD45.1+ T cells (%) CtrlEpA CD4+ T cells (%) CtrlEpA CtrlEpA CtrlEpA FSC CD8 CD8 FSC FSC FSC BNumber of CD45.1+ T cells (×103 per mgĎ Number of CD4+ T cells (×104 per mgĎ DC (%)NK cells (%) NK cells (%) DC (%) Number of DC (×103 per mg) Number of NK cells (×105) Number of NK cells (×103 per mg) Number of DC (×105) FSC FSC FSC CD8 CtrlEpA CtrlEpA CtrlEpA CD8+ T cells (%) Number of CD8+ T cells (×104 per mgĎ nsns ns nsns ns 40 IL-6 (pg/ml))

MEK1/2 and ERK1/2 = test: Immunoblot of total and phosphorylated MEK1/2 and ERK1/2 (Figure 5G); type: cell-based, mouse; conditions: result in words
Protocol: Detailed lysis conditions, SDS–PAGE and transfer procedures, primary/secondary antibodies (including clones and catalog numbers), molecular weight markers, ECL detection, and ImageJ (NIH) quantification are described in Supplemental Methods.
MH9A4, Biolegend, Cat. No. 507605, PE/Cy7, clone MH9A4, Biolegend, Cat. No. […]
clone Mab11, Biolegend, Cat. No. 502908), Perforin (APC, clone dG9, Biolegend, Cat.
Flow cytometric acquisition was performed using a BD Fortessa or Cytek Aurora cytometer. Data were analyzed with FlowJo software (v10.8.1 or newer). Fluorescence compensation, isotype-matched controls, and fluorescence-minus-one (FMO) controls were applied as appropriate for multicolor panel validation.
Cells were washed twice with PBS and lysed in 1 × lysis buffer (NCM, Cat. No.
WB3100) supplemented with a protease inhibitor cocktail (Solarbio, Cat. No. P1260).
Protein lysates were separated by SDS-polyacrylamide gel electrophoresis (SDS-PA G E ; YEASEN, Cat. No. 20325ES62) and transferred to PVDF membranes for […]
Membranes were probed with the following primary antibodies: ERK1/2 (clone […]
BioLegend, Cat. No. 369502), MEK1/2 (clone L38C12, Cell Signaling Technology, Cat.
No. 4694S), phospho -MEK1/2 (clone 41G9, Cell Signaling Technology, Cat. No. […]
(Proteintech, Cat. No. 10745 -1-AP), Total Akt (Cell Signaling Technolo gy, Cat. No. […]

## anteiso-C15 Leu7 surfactin [EpA]
[1]; LN, replicate 1
  Frequencies of NK in LN: 1.5
  number of NK in LN: 2211.77
[1]; LN, replicate 2
  Frequencies of NK in LN: 1.56
  number of NK in LN: 2015.49
[1]; LN, replicate 3
  Frequencies of NK in LN: 7.14
  number of NK in LN: 5620.7
[1]; LN, replicate 4
  Frequencies of NK in LN: 7.79
  number of NK in LN: 5844.48
[1]; LN, Figure S1M
  NK (NK1.1) gate number: 1.56
[1]; Spleen, replicate 1
  Frequencies of NK in Spleen: 14.2
  number of NK in Spleen: 1287047
[1]; Spleen, replicate 2
  Frequencies of NK in Spleen: 14.6
  number of NK in Spleen: 1289552
[1]; Spleen, replicate 3
  Frequencies of NK in Spleen: 14.4
  number of NK in Spleen: 1303518
[1]; Spleen, replicate 4
  Frequencies of NK in Spleen: 13.7
  number of NK in Spleen: 1053933
[1]; Spleen, Figure S1L
  NK (NK1.1) gate number: 14.2
[1]; result in words
  NK cells: increased only in the spleen
MEK1/2 and ERK1/2
  MEK and ERK phosphorylation: increased phosphorylation of MEK and ERK

— article PMC12867150, “A fungi-derived cyclic peptide enhances Th9-mediated antitumor immunity by targeting ZAP70 and SREBP1” (The Journal of Clinical Investigation, 2025)
